Consider six molecules from patent US10766865B2, “PKM2 modulators and methods for their use” (TOLERO PHARMACEUTICALS, INC., priority 2012, dated 2020).

Test [1] deals with T1, PKM2 (Homo sapiens, UniProt P14618). Briefly: Cell-Based Pyruvate Kinase Activity Assay, NCI-H1299. Set-up: host or cells: A549 or NCI-H1299 lung cancer cells. The conditions noted are these: NCI-H1299, 30 minutes with compound, n = 4; read-out: Cellular PKM2 activation EC50. On the procedure: (§1) Cell-Based Pyruvate Kinase Activity Assay
(§2) A549 or NCI-H1299 lung cancer cells were plated at 20,000 cells per well (96-well plate) in MEM media plus 10% FBS, with no additional glutamine or pyruvate. Following overnight incubation, cells were washed with PBS followed by 4 hour incubation in MEM media. Compounds were added to the cells in 1% final concentration DMSO. After 30 minutes, cells were lysed, and pyruvate kinase activity in lysates was determined by Pyruvate Kinase Activity Assay (BioVision, Milpitas, Calif.). Maximum velocity values were calculated from the kinetic data, and AC50 values were determined using Prism GraphPad Software (La Jolla, Calif.). Compound washout experiments were as described above, except after a 30 minute incubation with Example 244 (469 nM), the cells were washed with PBS followed by the addition of MEM media for the indicated time period, lysed and pyruvate kinase activity determined. Results are tabulated in Table 3 and presented graphically in FIGS. 6A and 6B.
Target sequence in this assay (P14618 2-531 limits assumed): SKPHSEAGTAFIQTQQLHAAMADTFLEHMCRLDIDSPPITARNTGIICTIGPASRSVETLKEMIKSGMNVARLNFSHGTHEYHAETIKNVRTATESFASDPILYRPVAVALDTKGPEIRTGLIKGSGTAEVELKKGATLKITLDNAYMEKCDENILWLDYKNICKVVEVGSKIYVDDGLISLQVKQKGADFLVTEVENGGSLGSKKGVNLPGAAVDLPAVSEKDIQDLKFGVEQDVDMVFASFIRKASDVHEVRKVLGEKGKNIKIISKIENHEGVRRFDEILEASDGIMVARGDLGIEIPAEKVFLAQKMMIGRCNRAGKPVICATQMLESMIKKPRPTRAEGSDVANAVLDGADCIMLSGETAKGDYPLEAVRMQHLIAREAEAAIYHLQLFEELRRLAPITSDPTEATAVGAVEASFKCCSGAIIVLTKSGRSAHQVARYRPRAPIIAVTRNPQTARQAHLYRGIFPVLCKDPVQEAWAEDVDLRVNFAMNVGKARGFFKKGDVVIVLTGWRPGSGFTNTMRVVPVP

The target in test [2] is T1, PKM2. Briefly: PKM2 Biochemical Assay. The conditions noted are these: for Max. Resp.: % maximum response in a biochemical assay as compared with Fructose 1,6-bisphosphate.
Target sequence in this assay (P14618 whole entry): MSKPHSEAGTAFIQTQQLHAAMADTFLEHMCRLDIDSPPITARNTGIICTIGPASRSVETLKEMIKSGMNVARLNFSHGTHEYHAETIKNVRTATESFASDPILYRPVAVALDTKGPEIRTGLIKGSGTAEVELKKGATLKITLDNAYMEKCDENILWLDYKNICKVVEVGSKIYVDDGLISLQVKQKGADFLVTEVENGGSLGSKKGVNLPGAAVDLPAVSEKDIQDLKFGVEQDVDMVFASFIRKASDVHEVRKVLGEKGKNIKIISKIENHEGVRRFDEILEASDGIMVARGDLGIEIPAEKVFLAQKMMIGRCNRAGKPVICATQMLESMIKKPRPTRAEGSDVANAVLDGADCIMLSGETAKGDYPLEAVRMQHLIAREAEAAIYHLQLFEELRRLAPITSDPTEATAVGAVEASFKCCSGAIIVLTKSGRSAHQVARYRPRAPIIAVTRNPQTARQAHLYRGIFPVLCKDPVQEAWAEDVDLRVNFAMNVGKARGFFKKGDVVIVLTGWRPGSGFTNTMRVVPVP
Test [3] deals with T1, PKM2. Nature of the test: Cell-Based Pyruvate Kinase Activity Assay, A549. The conditions noted are these: A549, 30 minutes with compound, n = 4; read-out: Cellular PKM2 activation EC50. On the set-up: host or cells: A549 or NCI-H1299 lung cancer cells. Here is the method: as §1, §2
Target sequence in this assay (P14618 2-531 limits assumed): as the sequence (P14618 2-531 limits assumed) above
The next test has as its system PC3 cells. Briefly: Cell Proliferation Assay, PC3. The conditions noted are these: Homo sapiens, PC-3; PC3, BME media lacking nonessential amino acids, 72 hours, ATPlite; read-out: Percent viability (EC50), Average. Type of test: cell-based. Here is the method: (§3) Cells were seeded at 5000 cells per well (in 96-well plate) in BME media lacking nonessential amino acids+5% dialyzed serum. After 18 hours, DMSO or compound in 0.1% final concentration DMSO was added.
(§4) Percent viability (EC50) of A549 and PC3 cells was tested against certain exemplary compounds according to the above general procedures.
(ATP-based viability assays read luminescence as a measure of living cells.)

The test system of a further test is A549 cells. Briefly: Cell Proliferation Assay, A549. Format: cell-based. The conditions noted are these: Homo sapiens; A549, BME media lacking nonessential amino acids, 72 hours, ATPlite; read-out: Percent viability (EC50), Average. On the procedure: as §3, §4

As usually defined, the EC50 is the midpoint of the concentration-response curve. On to `O=C(c1cc(Cl)n[nH]1)N(Cc1ccc(O)cc1F)CC1CCC1` [Example 244, N-(2-fluoro-4-hydroxybenzyl)-3-chloro-N-(cyclobutylmethyl)-1H-pyrazole-5-carboxamide], for which the concentration for a half-maximal effect (EC50) on PKM2 [1] is 300 ± 70 nM; at PKM2 [3] it was 450 ± 180 nM. Also, the Emax on PKM2 [2] (read-out: % FBP (extent of maximal activation, relative to FBP)) is 107 ± 10%. Also, the AC50 at PKM2 [2] (read-out: AC50 (concentration of half-maximal PKM2 activation), Table 2, n = 6 to 10) is 62 ± 23 nM. For the same molecule, the “Maximal PKM2 activity” value on PKM2 [2] (relative to activity in DMSO controls (normalized to 100%), FIG. 1B) is “approximately 600%”.

Regarding `O=C(c1cc(C(F)(F)F)n[nH]1)N(Cc1ccccc1Cl)CC1CCN1` (centres unmarked) [Example 227, N-(2-chlorobenzyl)-N-((azetidin-2-yl)methyl)-3-(trifluoromethyl)-1H-pyrazole-5-carboxamide], the EC50 in the test on PC3 cells turned out to be 1310 nM; in the test with A549 cells it was 928 nM. Further, the “Max. Resp.” value on PKM2 [2] was found to be 100%.

For the molecule `CO[C@H]1CC[C@H](N(Cc2ccccc2F)C(=O)c2cc(C(F)(F)F)n[nH]2)CC1` [Example 47, N-(2-FLUOROBENZYL)-N-(TRANS-4-METHOXYCYCLOHEXYL)-3-(TRIFLUOROMETHYL)-1H-PYRAZOLE-5-CARBOXAMIDE], the EC50 with PC3 cells came to 383 nM; in the test on A549 cells, 188 nM. In addition, at PKM2 [2], the “Max. Resp.” value came to 89%.

In the case of `Nc1cccc(Cl)c1CN(CCN1CCCC(F)C1)C(=O)c1cc(C(F)(F)F)n[nH]1` (centres unmarked) [Example 236, N-(2-amino-6-chlorobenzyl)-3-(trifluoromethyl)-N-(2-(3-fluoropiperidin-1-yl)ethyl)-1H-pyrazole-5-carboxamide], the EC50 stood at 33 nM with PC3 cells and 8.1 nM in the test on A549 cells. Further, the “Max. Resp.” value on PKM2 [2] came out at 73%.

In the case of `Nc1cccc(Cl)c1CN(CCN1CCC(O)C1)C(=O)c1cc(C(F)(F)F)n[nH]1` (centres unmarked) [Example 234, N-(2-amino-6-chlorobenzyl)-3-(trifluoromethyl)-N-(2-(3-hydroxypyrrolidin-1-yl)ethyl)-1H-pyrazole-5-carboxamide], the concentration giving a half-maximal response (EC50) amounted to 92.4 nM in the test with PC3 cells and 45.8 nM in the test with A549 cells. For the same molecule, the “Max. Resp.” value at PKM2 [2] was found to be 100%.

For `CCCN(CC)CCN(Cc1c(N)cccc1Cl)C(=O)c1cc(C(F)(F)F)n[nH]1` [Example 223, N-(2-chloro-6-aminobenzyl)-N-(2-(ethyl-propylamino)ethyl)-3-(trifluoromethyl)-1H-pyrazole-5-carboxamide], the concentration giving a half-maximal response (EC50) in the test with PC3 cells was found to be 54 nM; in the test with A549 cells, 33.5 nM. Further, on PKM2 [2], the “Max. Resp.” value stood at 100%.
